Reference: patent US12324832B2, “Application of heptoglycan-chain-containing oligosaccharide compounds in preparation of vaccine against Helicobacter pylori” (Jiangnan University, priority 2020, dated 2025)
Entries after “also recorded” stand apart in the source; their conditions may differ.

Tested on: serum antibodies generated against the Helicobacter pylori serotype O:6 purified polysaccharide
Assay: Oligosaccharide chip: binding of antiserum antibodies to spotted synthetic oligosaccharides
Set-up: species or system rabbit
Conditions: spotting concentration 1 mM; for fluorescence intensity on oligosaccharide chip: FIG. 6A/6B, serum diluted 1:50; for recognition and binding by antibodies in the antiserum: oligosaccharide fixed on chip via amino linker, antiserum against H. pylori serotype O6 LPS, anti-rabbit IgG FITC-labeled secondary antibody
Protocol: FIG. 6A: Detection of the antibody binding activity of the synthetic oligosaccharides in the oligosaccharide chip using an anti-rabbit IgG FITC-labeled secondary antibody. The chip spotting mode is shown as follows: • 1: trisaccharide 1, spotting concentration is 1 mM; • 2: tetrasaccharide 2, spotting concentration is 1 mM; • 3: heptoglycan-chain-containing pentasaccharide 3, spotting concentration is 1 mM; • 4: heptoglycan-chain-containing pentasaccharide 4, spotting concentration is 1 mM; • 5: […] containing only Lewis O-antigen, spotting concentration is 1 mM; • 6: heptoglycan-chain-containing octasaccharide 6, spotting concentration is 1 mM; • 7: tridecasaccharide 7 containing Lewis O-antigen, spotting concentration is 1 mM; and • 8: Helicobacter pylori serotype O6 lipopolysaccharide, spotting concentration is 1 mg/mL.
FIG. 6B: quantitative measurements of average fluorescence intensity of spots 1-7 in FIG. 6A. Error bars are standard deviations of 4 different points from two different detection areas.
A chemically synthesized oligosaccharide antigen was fixed onto the chip surface through an amino linker, and the antiserum was incubated with the oligosaccharide chip and then incubated with the secondary antibody.
Under a chip scanner, the fluorescence of the binding of the oligosaccharide fragment and the antibody can be obtained. In this way, the binding strength of the oligosaccharide fragment to the antibody in the serum can be quantified, the amount of the chemically synthesized oligosaccharide and antiserum can be saved, and the result can be reflected clearly.
The experimental procedure is as follows: • (1) Activated amino slides were spotted with a biochip spotter. After the completion of the spotting, incubation was carried out overnight at a temperature of 26° C. and a humidity of 55%. • (2) Then the slides were immersed in a solution B (50 nM Na2HPO4, 100 nM ethanolamine in water) at 50° C. for 1 hour. The slides were washed with ultrapure water 3 times, and the residual water was removed by centrifugation. • (3) 3% BSA (w/v) in PBS was used for blocking at 4° C. overnight. The slides were washed with PBST (PBS containing 0.1% tween) once, washed with PBS twice, and centrifugally dried. • (4) The slides were placed into a 16-well incubator (ProPlate). 120 μL of mouse serum sample diluted 1:50 in 1% BSA (w/v) in PBS was added to each well, and incubated in a 37° C. wet box in the dark for 1 hour. The sample was removed, and the incubator was washed with 150 μL of PBST 3 times. • (5) A secondary antibody diluted 1:400 in 1% BSA (w/v) in PBS was added, and incubated in a wet box at 37° C. in the dark for 45 minutes. The secondary antibody solution was removed, and the incubator was washed with 150 μL of PBST 3 times. The 16-well incubator was removed, washed with ultrapure water, and washed with ultrapure water for 15 minutes. The residual water was removed by centrifugation. Scanning was carried out using the chip scanner. Immunogenicity Detection of Helicobacter pylori Serotype O:6 Synthetic Oligosaccharide Fragment:
NHS slides (SurModics, DN01-0025) were spotted with synthetic oligosaccharide compounds 1 to 7 using a biochip spotter (Jiangsu RayMe Biotechnology Co., Ltd.). After the completion of the spotting, incubation was carried out overnight at a temperature of 26° C. and a humidity of 55%. Then the slides were immersed in a solution B (50 nM Na2HPO4, 100 nM ethanolamine in water) at 50° C. for 1 hour. The slides were washed with ultrapure water 3 times, and the residual water was removed by centrifugation. 3% BSA (w/v) in PBS was used for blocking at 4° C. overnight. The slides were washed with PBST (PBS containing 0.1% tween) once, washed with PBS twice, and centrifugally dried. The slides were placed into a 16-well incubator (ProPlate). 120 μL of mouse serum sample diluted 1:50 in 1% BSA (w/v) in PBS was added to each well, and incubated in a 37° C. wet box in the dark for 1 hour. […]

SMILES | fluorescence intensity on oligosaccharide chip | recognition and binding by antibodies in the antiserum
NCCCO[C@H]1OC([C@H](O)CO)[C@@H](O)[C@H](O)C1O[C@H]1OC([C@H](O)CO)[C@@H](O)[C@H](O)C1O[C@H]1OC([C@@H](CO)O[C@H]2OC([C@H](O)CO)[C@@H](O)[C@H](O[C@H]3OC([C@H](O)CO)[C@@H](O)C(O)C3O)C2O)[C@@H](O)[C@H](O)C1O (stereo partly drawn) [Compound 3] | higher fluorescence intensity | well recognized; also recorded: obvious and strong recognition and binding
NCCCO[C@H]1OC([C@H](O)CO)[C@@H](O)[C@H](O[C@H]2O[C@@H]([C@H](O)CO)[C@@H](O)C(O[C@H]3OC([C@H](O)CO)[C@@H](O)[C@H](O[C@H]4O[C@@H]([C@H](O)CO)[C@@H](O)C(O[C@H]5OC([C@H](O)CO)[C@@H](O)[C@H](O)C5O)C4O)C3O)C2O)C1O (stereo partly drawn) [Compound 4] | higher fluorescence intensity | well recognized; also recorded: obvious and strong recognition and binding
NCCCO[C@H]1OC([C@H](O)CO)[C@@H](O)[C@H](O)C1O[C@H]1OC([C@H](O)CO)[C@@H](O)[C@H](O)C1O[C@H]1OC([C@@H](CO)O[C@H]2OC([C@H](O)CO)[C@@H](O)[C@H](O[C@H]3O[C@@H]([C@H](O)CO)[C@@H](O)C(O[C@H]4OC([C@H](O)CO)[C@@H](O)[C@H](O[C@H]5O[C@@H]([C@H](O)CO)[C@@H](O)C(O[C@H]6OC([C@H](O)CO)[C@@H](O)[C@H](O)C6O)C5O)C4O)C3O)C2O)[C@@H](O)[C@H](O)C1O (stereo partly drawn) [Compound 6] | higher fluorescence intensity | well recognized; also recorded: obvious and strong recognition and binding
